According to patent EP0808325B1, “[…] […] SERIES FOR […] GABA RECEPTOR” (priority 1994, dated 1996):

What was measured:
maximal electroshock = maximal electroshock test; format: in vivo, mice; details: Mus musculus, ip, 20% hydroxypropyl-β-cyclodextrin in water
From the text: The anticonvulsant tests are similar to that described above. […]

mice [1] = test: light/dark transition test; format: in vivo, N.I.H. Swiss-Webster mice; details: IP
From the text: The light/dark transition test (Crawley and Goodwin, Pharmacol. Biochem. Behav. 13:67-70 1980) is based on the observation that rodents naturally tend to explore novel environments, but open, brightly lit arenas are aversive to the rodents and inhibit exploratory behavior (Christmas and Maxwell, Neuropharmacol. 9:17-29 1970; File, J. Neurosci. Meth. 2:219-238 1980).
Male N.I.H. Swiss-Webster mice (Harlan, Harlan, Indianapolis, IN) weighing 15-20 g were housed four per cage in polyethylene cages with sawdust bedding. The colony room was environmentally controlled (22°C) with a 12 hr light/dark cycle (0600-1800 hr). Food and water were available ad libitum, except during testing. The experiments were run from 0700-1500 hr and groups were counterbalanced for time of day effects. Mice were only administered drug or vehicle once.
The method used was a modification of methods previously described (Wieland et al., Br. Res. 565:263-268 (1991)). The apparatus included two 2-compartment automated test chambers (Model RXYZCM16, Omnitech Electronics, Columbus, OH). The open compartment was connected to the enclosed compartment via a 7.5 x 7.5 cm passageway. The open compartment was brightly lit using a 200 W incandescent light bulb. The experimental room was kept dark. Interruptions of the infrared beams in either chamber were automatically recorded by being linked to a computer through a Digiscan Analyzer (Omnitech Electronics) and the data was analyzed using the Integrated Lab Animal Monitoring System (Omnitech Electronics).
N.I.H. Swiss-Webster mice were administered vehicle or test drug intraperitoneally (IP), 10 min later they were placed in the center of the lit compartment. The number of transitions between the lit and dark chambers, total activity in the lit chamber and the time spent in the lit chamber were measured during a 10 min test period.

mice [2] = test: elevated plus-maze; format: in vivo, N.I.H. Swiss-Webster mice
Summary of the method: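 Male Swiss-Webster mice (15-20 g), dosed once with drug or vehicle, were placed on an elevated plus-maze 10 min post-injection for 5 min. Open-arm entries and open-arm time recorded, each as a percentage of total arm entries or time; center time excluded.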

rats = test: Vogel test; format: in vivo; details: i.c.v., b-CD, 10 ug
From the text: The Vogel test is based on the development of a conflict between a highly motivated behavior and an aversion. For this test, the strong motivation is thirst. The animal is water deprived for 12-16 hrs to produce the motivation to drink. During the training period the animals are exposed to the testing environment so they become accustomed to the drinking spout and minimize the fear of a novel environment. Following training, the animals are allowed access to water for 2 hrs. During this time, the animals will drink and eat their normal amount of water and food, compensating for the deprivation time. However, this schedule still produces a strong motivation to drink during the testing period.
Having been deprived of water for twelve to sixteen hours, an animal is placed in a test cage where it is allowed to drink freely for five minutes. This period is used to habituate the animal to the environment and the drinking spout Following the training period, animals have access to water and food in their home cage for 2 hrs. Food is available at all times. Twenty-four hours later, drug is administered to the animal intracerebroventricularly.
After an indicated delay started from the time of injection the animal is again placed in the test cage for ten minutes. A computer counts each time the animal licks, and after every twentieth lick administers a mild electric stimulus across the tongue and/or feet. The electrical stimulus consists of a 0.6 mA current with a duration of 100 msec. This procedure produces a state of conflict for the animal that is reduced by the administration of clinically used anxiolytic agents (i.e., Valium). For dose-response curves, separate groups of animals are injected with increasing doses of test drug and are tested at a predetermined time.

CC(=O)[C@H]1CC[C@H]2[C@@H]3CC[C@H]4C[C@H](O)CC[C@]4(C)[C@H]3CC[C@]12C [3α-hydroxy-5α-pregnan-20-one, reference compound]
ED50 (maximal electroshock): 28.6 mg/kg | activity (mice [1]; 10 & 20 mg/kg, compared to control groups): significant (p < 0.01) increases | number of transitions between the dark box and the light box (mice [1]; at doses tested, versus control (Dunnett's t-test)): significantly increased | time spent on the open-arms (mice [2]; 10 mg/kg (p ≤ 0.01)): significant increases | entries into the open-arms (mice [2]; 20 mg/kg (p ≤ 0.05)): significant increase | % Control (mice [2]; IP, 50% hpbcd, 20 mg/kg): 143.7% | Vogel (% of control) (rats): 431.1 % of control
